Reference: patent US20090186100A1, “MEDICAMENT FOR ANTI-AGING SKIN CARE AND WOUND HEALING AND USE THEREOF” (SAGITTARIUS LIFE SCIENCE CORP., priority 2008, published 2009)

Experiments:
[1] = Free radical scavenger, SOD mimetic activity (xanthine/xanthine oxidase/NBT); assay type: biochemical; conditions: 6.1 μM
Method: SS304L or vehicle was incubated with 0.12 mM xanthine, 6 mU xanthine oxidase, 27 μM nitroblue tetrazolium (NBT), 0.11 mM EDTA, 0.005% bovine serum albumin and Na2CO3 at pH 10.5 at 25° C. for 20 minutes. Conversion of xanthine to uric acid +O^−+NBT to formazan was then determined by measurement of absorbance at 595 nm and percent inhibition by superoxide dismutase or SS304L was calculated.

[2] = tested on: Human dermal fibroblasts (HFB); experiment: HFB proliferation (MTT); assay type: cell-based; conditions: 72 hours; for Mean OD: MTT A570
Method: Human dermal fibroblasts (HFB) were cultured from foreskin with consent by cell emigration from ˜1 mm^3 skin pieces in DMEM+1 mM sodium pyruvate+2 mM glutamine+100 U/ml penicillin+100 ug/ml streptomycin+10% fetal calf serum (FCS) (C-DMEM) under humidified atmosphere containing 5% CO2 at 37° C.
1×10^4 HFB were seeded in a 96 multi-well culture dish. 48 hours later, the cells were treated with various concentrations of SS304L in C-DMEM under humidified atmosphere containing 5% CO2 at 37° C. The cells were exposed to drugs for 72 hours, and then treated with 0.5 mg/ml MTT for 4 hours at 37° C. The reduced formazan was dissolved in isopropanol containing 0.04 N HCl, and measured at A570 nm by an ELISA reader (Molecular Device).

[3] = tested on: full thickness excision wounds; experiment: Full thickness excision wound healing in mice; assay type: in vivo, Aging male ICR mice
Method: Aging male ICR mice at body weights of 40 to 50 grams (Age: 14 to 16 weeks) were lightly anesthetized with ether. 0.7 mm in diameter full thickness excisions were conducted at the dorsal back skin after shaving and 70% ethanol sterilization. Immediately after excision, the wounds were covered with either vehicle (sterile 1% carboxymethyl cellulose, 25 μl) at first wound site of all mice, and with 1% arginine, 0.1% S[…], or 1% S[…] at the second wound site. Each group contained 4 to 6 mice. The drugs were applied on the day of photography (Day 0, 1, 2, 3, 4, 7, 10, 14, 18). The areas of the wounds and the rates and qualities of healing were compared at each time point. Arginine was used as comparison due to the similarity of part of its action mechanisms to S[…].

Human recombinant COX II = molecular target: T1, Human recombinant COX II (Homo sapiens, UniProt P35354); experiment: Inhibition of cyclooxygenase II; assay type: biochemical
T1 construct: purchased Sigma C-0858; host or cells: Sf21 insect cells
T1 sequence (P35354 18-604): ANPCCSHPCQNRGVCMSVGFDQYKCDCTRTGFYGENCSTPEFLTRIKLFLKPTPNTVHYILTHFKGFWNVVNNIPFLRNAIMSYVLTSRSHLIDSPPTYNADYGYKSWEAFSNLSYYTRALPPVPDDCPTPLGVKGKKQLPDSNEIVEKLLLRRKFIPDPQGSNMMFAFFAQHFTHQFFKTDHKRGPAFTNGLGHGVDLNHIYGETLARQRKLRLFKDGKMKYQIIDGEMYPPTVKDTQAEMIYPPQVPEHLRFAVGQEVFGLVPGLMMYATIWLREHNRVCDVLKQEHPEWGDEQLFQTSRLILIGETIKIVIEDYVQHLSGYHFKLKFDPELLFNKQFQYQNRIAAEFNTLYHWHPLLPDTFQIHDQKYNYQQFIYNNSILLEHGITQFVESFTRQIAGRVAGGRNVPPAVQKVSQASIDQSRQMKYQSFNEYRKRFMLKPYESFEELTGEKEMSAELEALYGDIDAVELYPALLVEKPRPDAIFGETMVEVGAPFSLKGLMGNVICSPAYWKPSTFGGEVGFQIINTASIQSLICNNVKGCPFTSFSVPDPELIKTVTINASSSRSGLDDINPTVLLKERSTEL
Method: SS304L or vehicle was […] with 0.11 U enzyme, 1 mM reduced glutathione, 500 μM phenol and 1 μM hematin in Tris-HCl, pH 7.7 at 37° C. for 15 minutes. 0.3 μM arachidonic acid as substrate was added and the reaction was terminated by addition of 1 N HCl after 5 minutes. The converted PGE2 was measured by an Amersham EIA kit following centrifugation. SS304L was assayed at 10 and 100 μg/ml.

Compound: O=C(O[C@@H]1Cc2c(O)cc(O)cc2O[C@@H]1c1ccc(O)c(O)c1)c1cc(O)c(O)c(O)c1 [(−)-Epicatechin gallate]
- Inhibition (%) [1]: 50%

Compound: C[C@]12CC[C@@H]3c4ccc(O)cc4CC[C@H]3[C@@H]1CC[C@@H]2O [Estradiol]
- Inc. (%.) ([2]; Estradiol 1 nM): −4%
- Mean OD ([2]; Estradiol 1 nM): 0.131
- Inc. (%.) ([2]; Estradiol 3 nM): 4%
- Mean OD ([2]; Estradiol 3 nM): 0.139
- Inc. (%.) ([2]; Estradiol 10 nM): 2%
- Mean OD ([2]; Estradiol 10 nM): 0.137
- Inc. (%.) ([2]; Estradiol 30 nM): −3%
- Mean OD ([2]; Estradiol 30 nM): 0.132
- Inc. (%.) ([2]; Estradiol 100 nM): −4%
- Mean OD ([2]; Estradiol 100 nM): 0.131

Compound: N=C(N)NCCC[C@H](N)C(=O)O [arginine]
- Inflammation of wounds ([3]; day 3 post wounding, topical): no apparent sign of inflammation
- Re-epithelization/granulation process ([3]; day 7, topical): significantly facilitated
- Unhealed wound areas compared to the areas of the vehicle treated wounds (fraction) ([3]; day 10, applied at 1%): ⅓ to ½
- Healing of wounds ([3]; day 14, topical): completely healed

Compound: Vitamin E
- Inc. (%.) ([2]; Vitamin E 3 uM): 0%
- Mean OD ([2]; Vitamin E 3 uM): 0.135
- Inc. (%.) ([2]; Vitamin E 10 uM): 9%
- Mean OD ([2]; Vitamin E 10 uM): 0.144
- Inc. (%.) ([2]; Vitamin E 30 uM): −4%
- Mean OD ([2]; Vitamin E 30 uM): 0.131
- Inc. (%.) ([2]; Vitamin E 100 uM): −9%
- Mean OD ([2]; Vitamin E 100 uM): 0.126
- Inc. (%.) ([2]; Vitamin E 300 uM): −16%
- Mean OD ([2]; Vitamin E 300 uM): 0.120

Compound: CS(=O)(=O)Nc1ccc([N+](=O)[O-])cc1Oc1ccccc1 [Nimesulide]
- inhibition at 1 µM (Human recombinant COX II): 50%

Compound: Vitamin A
- Inc. (%) ([2]; Vitamin A 0.1 uM): −7%
- Mean OD ([2]; Vitamin A 0.1 uM): 0.128
- Inc. (%) ([2]; Vitamin A 0.3 uM): −4%
- Mean OD ([2]; Vitamin A 0.3 uM): 0.131
- Inc. (%) ([2]; Vitamin A 1 uM): −4%
- Mean OD ([2]; Vitamin A 1 uM): 0.131
- Inc. (%) ([2]; Vitamin A 3 uM): −12%
- Mean OD ([2]; Vitamin A 3 uM): 0.124
- Inc. (%) ([2]; Vitamin A 10 uM): −6%
- Mean OD ([2]; Vitamin A 10 uM): 0.129
